The values below come from publication PMC11206913, “Amoebicidal Effect of COVID Box Molecules against Acanthamoeba: A Study of Cell Death” (Pharmaceuticals, 2024).

The IC50 is the concentration at which inhibition is half-maximal.

Series [1] has as its system murine macrophages J774A.1. As to the kind of experiment: Cytotoxicity against murine macrophages, alamarBlue. The format is cell-based. On the procedure: The cytotoxicity of the COVID Box compounds was evaluated against murine macrophages of the J774A.1 cell line (ATCC TIB-67), as previously described. As mentioned in the trophocidal assay, cells were allowed to adhere on a 96-well plate in 37 °C in a 5% CO2 humidified incubator. Later, a well-defined volume of the compounds was added at an affinal concentration of 10 µM to each well. Fluorescence emitted by the alamarBlue^TM was measured after 24 h of incubation and the percentage inhibition value was determined. The Cytotoxicity Concentration 50 (CC50) value of Almitrine and Terconazole was determined following the same method described previously for the trophocidal effect.

The subject of series [2] is A. castellanii Neff cysts. As to the kind of experiment: Cysticidal activity, alamarBlue method. It counts as cell-based. Conditions: Acanthamoeba castellanii, read-out: IC50 cysticidal effect. Here is the method:
(§1) Based on the amoebicidal and cytotoxicity results, the selected compounds, Almitrine and Terconazole, were further investigated on the cyst stage of the various Acanthamoeba strains: A. castellanii Neff, A. griffini, A. polyphaga, A. culbertsoni, and A. castellanii L-10. The cysticidal activity was assessed by the alamarBlue™ method, as described previously. Briefly, in a 96-well plate, a serial dilution of the mentioned drugs was first conducted. Later, cysts were resuspended in PYG medium and were added into each well at a concentration of 5 × 10^4 cysts mL^−1. The plates were examined over a week using an inverted microscope. After 7 days of incubation, the plates were centrifuged at 3000 rpm and the medium was replaced with a new PYG. Finally, 10 μL of alamarBlue^TM Cell Viability Reagent (Biosource, Europe, Nivelles, Belgium) was placed into each well, and the plates were incubated at 28 °C with slight agitation. The emitted fluorescence was measured after 144 h.
(Alamar Blue is a resazurin reagent that responds to reducing activity.)

A short description of another series: Solubility (remark). Conditions: reason for discarding. It counts as physicochemical.
The test system of series [3] is Acanthamoeba culbertsoni trophozoites. In words: Trophocidal activity, alamarBlue assay. The format is cell-based. Conditions: read-out: IC50 trophocidal effect. On the procedure: (§2) The trophocidal effect of the 160 molecules from the COVID Box was determined using the alamarBlue™ (Life Technologies, Madrid, Spain) assay as previously described with modifications. Briefly, Acanthamoeba castellanii Neff trophozoites were first seeded in triplicate on a 96-well microtiter plate with 99 μL from a stock solution of 5 × 10^4 cells mL^−1. Subsequently, 1 μL of each compound was added to each well to assess the in vitro amoebicidal activity at 10 μM as the final concentration. Finally, 10 µL of alamarBlue™ Cell Viability Reagent (Bioresource, Europe, Nivelles, Belgium) was added into each well. The plates were then incubated for 96 h at 28 °C with a slight agitation. An EnSpire microplate reader (PerkinElmer, Waltham, MA, USA) was used to measure fluorescence at 570/585 nm. Then, the percentage of inhibition value of the tested COVID Box compounds was determined in comparison with the negative control.
(§3) Almitrine and Terconazole were the COVID Box products selected to evaluate the amoebicidal effect against the trophozoite stage of […] strains of Acanthamoeba: A. castellanii Neff, A. griffini, A. polyphaga, A. culbertsoni, and A. castellanii L10. The inhibition concentration 50 (IC50) value was calculated based on the alamarBlue™ assay, as previously mentioned.

For a further series, the system named is A. griffini trophozoites. In words: Trophocidal activity, alamarBlue assay. The format is cell-based. The conditions noted are these: Acanthamoeba griffini, read-out: IC50 trophocidal effect. On the procedure: as §2, §3
The subject of another series is A. castellanii L10 cysts. As to the kind of experiment: Cysticidal activity, alamarBlue method. It counts as cell-based, Acanthamoeba castellanii L10. Conditions: Acanthamoeba castellanii, read-out: IC50 cysticidal effect. On the procedure: as §1
Series [4] deals with Acanthamoeba culbertsoni. As to the kind of experiment: Plasma membrane permeability, SYTOX Green. The format is cell-based. Conditions: IC90, 24 h. Here is the method:
(§4) Acanthamoeba culbertsoni cells were incubated with IC90 of Terconazole for 24 h. All mean fluorescence intensities were quantified using EVOS M5000 (Life Technologies, Madrid, Spain), processing three different observations in triplicate using an objective (×40), and images of single cells were obtained by a Leica DMI 4000 B inverted confocal microscope with a 63× objective (Leica Microsystems, Germany). All assays were performed in triplicate.
The effect of the study drug on the cell’s membrane permeability was assessed using specific DNA staining. SYTOX® Green (Molecular Probes, Invitrogen, Madrid, Spain) is a DNA-specific dye impermeable to the cells, whose fluorescence increases 500× upon fixation to the DNA. Briefly, […] trophozoites were incubated for 24 h with IC90 of the drug solution. Subsequently, the SYTOX® Green dye was added at a final concentration of 1 μM for 15 min in the dark.

For another series, the system named is Naegleria fowleri. Details: method as in PMID 38718717. The conditions noted are these: previous work of the authors; read-out: IC50 against Naegleria fowleri; cited from earlier work.
Series [5] relates to Acanthamoeba culbertsoni trophozoites. As to the kind of experiment: ROS generation, CellROX Deep Red staining. The conditions noted are these: IC90, 24 h. The format is cell-based. Here is the method: as §4
The overproduction of intracellular ROS was measured using the CellROX® Deep red fluorescent probe (Invitrogen, Madrid, Spain).

Series [6] has the same test system. In words: Immunofluorescence staining of tubulin. The format is cell-based. The conditions noted are these: IC90, 24 h. Here is the method: Immunofluorescence staining of tubulin was performed according to the manufacturer’s staining procedure (Sigma-Aldrich, Madrid, Spain) with slight modifications. Briefly, cells were treated first with Terconazole at IC90. After 24 h of incubation, 50 µL of treated and untreated cell suspensions was placed on a gelatin precoated coverslip for 30 min. Cells were first fixed with formaldehyde (4%) and later permeabilized with Triton (0.3%) for 10 min. Washed with PBS (3X), cells were treated with 5% BSA in PBS 1X/150 mM sucrose for 30 min and washed with glycine 100 mM. At this stage, the trophozoites were incubated with a monoclonal antibody, Anti-α-Tubulin (1:2000), for 2 h at room temperature. Washed twice with PBS, cells were then incubated with the second antibody labeled with Alexa 594 (1:500; from Thermo Fisher Scientific, Rockford, IL, USA) for an hour at room temperature in darkness. Finally, cells were washed with PBS 1X and mounted using mounting medium with DAPI (Sigma-Aldrich; Madrid, Spain). Three-dimensional and maximum projection imaging of the trophozoites was performed by Z-stack imaging using a Leica DMI 4000 B inverted confocal microscope with LAS X software (Leica DMI 4000 B inverted confocal microscope), a 405 nm laser and a 532 nm laser, and a Leica HCX PL Apo 63× Oil Objective.

Series [7] has as its system Acanthamoeba culbertsoni. In words: Chromatin condensation, Hoechst 33342/PI double stain. Conditions: IC90, 24 h. The format is cell-based. Here is the method:
as §4
A double-stain apoptosis detection kit (Chromatin Condensation/Dead Cell Apoptosis Kit) with Hoechst 33342 and Propidium Iodide (Invitrogen, Madrid, Spain) were used. The experiment was carried out by following the manufacturer’s recommendations.

Series [8] has as its system Acanthamoeba castellanii L10 trophozoites. In words: Comparative label-free proteomics. The conditions noted are these: IC50, 24 h. It counts as cell-based. On the procedure: The proteomic analysis was conducted according to Arbon et al., 2022 [39]. A quantity of 10^6 cells was first incubated with Terconazole at IC50 for 24 h, then treated and untreated cells were centrifuged and washed with PBS. Both groups were prepared in three biological replicates. The assay was conducted as detailed in our previous work. Results were analyzed using STRING free software and GraphPad 9 prism (Supplementary Material File S2).

Series [9] has as its system Acanthamoeba culbertsoni trophozoites. As to the kind of experiment: Actin staining with phalloidin-TRITC. It counts as cell-based. Conditions: IC90. Here is the method: As in the immunofluorescence staining, cells were first treated with IC90 of Terconazole and fixed with formaldehyde (4%) over a gelatin-precoated coverslip. Later, the cells were permeabilized with Triton (0.1%), followed by a 1 h incubation with phalloidin–tetramethylrhodamine B isothiocyanate (phalloidin-TRITC; Sigma-Aldrich, Madrid, Spain) at room temperature. Cells were finally washed with PBS 1X and mounted using mounting medium with DAPI. Cells were examined by Z-stack imaging using a Leica DMI 4000 B inverted confocal microscope with a 63× objective (Leica Microsystems, Wetzlar, Germany), a 405 nm laser, and a 532 nm laser.

The test system of another series is A. polyphaga cysts. In words: Cysticidal activity, alamarBlue method. The format is cell-based. The conditions noted are these: Acanthamoeba polyphaga, read-out: IC50 cysticidal effect. On the procedure: as §1
Series [10] deals with A. castellanii L10 trophozoites. As to the kind of experiment: Trophocidal activity, alamarBlue assay. The format is cell-based. Conditions: Acanthamoeba castellanii, read-out: IC50 trophocidal effect. Here is the method:
as §2, §3

For series [11], the system named is A. polyphaga trophozoites. As to the kind of experiment: Trophocidal activity, alamarBlue assay. It counts as cell-based. Conditions: Acanthamoeba polyphaga, read-out: IC50 trophocidal effect. Here is the method: as §2, §3
Series [12] deals with Acanthamoeba culbertsoni trophozoites. As to the kind of experiment: Mitochondrial membrane potential, JC-1 dye. Conditions: IC90, 24 h. It counts as cell-based. On the procedure: as §4
Based on the JC-1 state and the emitted fluorescence, we distinguished two sets in the cellular population: live cells emit high red fluorescence and affected cells with collapsed mitochondrial membrane potential emit a higher green fluorescence.

Series [13] has as its system Acanthamoeba culbertsoni. As to the kind of experiment: ATP assay, CellTiter-Glo. The format is cell-based. The conditions noted are these: IC90, 24 h of treatment. On the procedure:
as §4
After 24 h of drug treatment, the intracellular ATP content was measured using a CellTiter-Glo Luminescent Cell Viability Assay (Promega, Madison, WI, USA). The experiment was carried out according to the manufacturer’s instructions, and the luminescence intensity was measured in a white 96-well plate using an EnSpire® Multimode Plate Reader.
For orientation: ATP-based viability assays read luminescence as a measure of living cells.

SMILES strings stand for the structures.

For the compound `C=CCNc1nc(NCC=C)nc(N2CCN(C(c3ccc(F)cc3)c3ccc(F)cc3)CC2)n1` [Almitrine], the “cytotoxicity compared between the two drugs” value in [1] is “lower cytotoxicity than Terconazole”. Further, the IC50 is 51.7 ± 2.13 µM in series [2], 32.08 ± 0.06 µM in [3], 5.2 ± 0.4 µM in the series on A. griffini trophozoites and 8.76 ± 0.07 µM in the series on A. castellanii L10 cysts. For the same compound, in “Solubility (remark)”, the solubility entry is on record as “low solubility”.
On to `CC(C)N1CCN(c2ccc(OCC3COC(Cn4cncn4)(c4ccc(Cl)cc4Cl)O3)cc2)CC1` (stereo not drawn) [Terconazole], for which, in the series on Acanthamoeba culbertsoni [4], the “plasma membrane permeability (SYTOX green fluorescence)” value is given as “statistically higher green fluorescence than the negative control”. Also, the IC50 with Naegleria fowleri is 3.68 ± 0.61 µM; in series [2], 10.2 ± 2.01 µM; in the series on A. polyphaga cysts it was 2.24 ± 0.5 µM; in series [10], 9.07 µM; in series [11] it was 4.62 µM. Also, in [5], the “ROS production (CellROX Deep Red fluorescence)” value is “significantly higher fluorescence than the untreated cells”. The “tubulin network (immunofluorescence)” value in series [6] is listed as “highly reduced cell shape with lower fluorescence”. The “chromatin condensation (Hoechst/PI staining)” value in the series with Acanthamoeba culbertsoni [7] was “presence of intensely bright blue, fluorescent cells”. In series [8], this compound yielded an affected proteins activated of 20%. Besides, the affected proteins downregulated in [8] came to 80%. For the same compound, in [8] (of 4566 identified proteins), the “proteins at least twofold differentially expressed” value is 223 proteins. Moreover, the “actin distribution (phalloidin-TRITC fluorescence)” value in [9] is reported as “lower fluorescence than the untreated cells”. Also, the “decrease in the MMP (ratio red/green JC-1 fluorescence) compared to untreated cells” value in series [12] is 50%. The “inhibition in the total ATP level relative to negative control” value in the series on Acanthamoeba culbertsoni [13] is 62.5 ± 2.36%.
